{
  "source": "paper PMC9818267",
  "about": "“Brain Natriuretic Peptide Protects Cardiomyocytes from Apoptosis and Stimulates Their Cell Cycle Re-Entry in Mouse Infarcted Hearts” (Cells, 2022)",
  "key": {"[1]": {"experiment": "Survival of infarcted mice at 14 days", "assay_type": "in vivo, mouse", "conditions": "14 days after MI; BNP ip every 2 days; saline group 83.9%", "experimental": "To generate a permanent infarction, a ligation of the left anterior descending coronary artery (LAD) was performed in 6–8-week-old C57BL/6- or 8-week-old Myh6 MerCreMer mice, already injected with Tamoxifen 2 weeks before. Mice were anesthetized with ketamine/xylazine and acepromazine (65 mg/kg, 15 mg/kg, 2 mg/kg, respectively). Mice were intubated and ventilated during all the entire period of surgery. At the third intercostal space, the chest cavity was opened and at the left upper sterna border, the LAD coronary artery was ligated with a 7–0 nylon suture at about 1–2 mm from the atria. After surgery, Temgesic (Buprenorphine, 0.1 mg/kg) was injected subcutaneously as soon as the mice woken up and every 8–12 h for 2 days. Adult mice were sacrificed by lethal injection of pentobarbital (150 mg/kg intraperitoneally) 2 weeks after the surgery. The breathing arrest was controlled and cervical dislocation was performed.\nBNP was injected into infarcted adults, and unmanipulated neonatal and adult mice. Directly after surgery, NaCl (saline) or BNP (1.3 µg/20 g in 20 µL) was injected into the left ventricle cavity. At 24 h after MI, mice were intraperitoneal (ip) injected with BNP (2 µg/20 g mice) or saline every 2 days. C57BL/6 mice were sacrificed 1- and 14 days post-MI and Myh6 MerCreMer mice were sacrificed 14 days post-MI (Figure 1A). […]"}, "[2]": {"system": "caspase 3+ CMs", "experiment": "Immunostaining of caspase 3+ CMs in infarcted area", "assay_type": "in vivo, mouse", "conditions": "infarcted area 1 day after MI, BNP vs saline", "experimental": "Cells or OCT heart sections (5 µm-thick cryosections) were washed in PBS 1X and fixed in paraformaldehyde (2%) or formol (4%) for 10 min at RT. After 10 min of permeabilization (0.3% Triton x-100 in PBS) and one hour of blocking with normal serum, sections were probed with primary antibodies overnight at 4 °C (Supplementary File S1). The second day, the secondary antibody was added on cells or heart sections. Slides were mounted with Dabco (Sigma) and pictures were captured with Nikon Eclipse TS100 or 90i microscope. Images were processed with Adobe Photoshop CC2015."}, "[3]": {"system": "cardiomyocytes (CMs)", "experiment": "Cardiomyocyte isolation (Langendorff-Free method) and counting", "assay_type": "in vivo, mouse", "experimental": "(§1) BNP was injected into infarcted adults, and unmanipulated neonatal and adult mice. Directly after surgery, NaCl (saline) or BNP (1.3 µg/20 g in 20 µL) was injected into the left ventricle cavity. At 24 h after MI, mice were intraperitoneal (ip) injected with BNP (2 µg/20 g mice) or saline every 2 days. C57BL/6 mice were sacrificed 1- and 14 days post-MI and Myh6 MerCreMer mice were sacrificed 14 days post-MI (Figure 1A). Neonatal C57BL/6 mice (3 days after birth) were injected ip with NaCl or BNP every two days (1 µg/2 g; Bachem; synthetic mouse BNP (1–45) peptide (catalog number H-7558)). Mice were sacrificed 11 days after birth (Figure 1B). Eight week old C57 BL/6 mice or Myh6 MerCreMer unmanipulated mice were injected ip with BNP (2 µg/20 g mice) or NaCl every two days (Figure 1C). Two weeks after the first injection, mice were sacrificed. To assess for the implication of the ERK signaling pathway in the BNP effect on CMs, PD0325901 (60 µg/20 g mice in 80 µL) was administered by gavage in adult unmanipulated mice 1 h before BNP injection (2 µg/20 g mice).\n(§2) CM isolations were performed thanks to the Langendorff-Free method. […] Thereafter, the heart was removed from the chest and the left ventricle was perfused with enzymatic solution containing collagenase II (120 U/mL), collagenase IV (120 U/mL) (Worthington, Biochemical Corporation, USA) and protease XIV (0.05 mg/mL or 0.175 U/mL) (Sigma-Aldrich, Merck, Darmstadt, Germany). In each experiment, a full digestion of the heart was obtained. After digestion, cardiac cells were dissociated by gentle pipetting, filtered and collected after 25 min sedimentation. For infarcted hearts, the tissue was separated into the three zones (ZI, BZ and RZ). The three different areas were weighted before gentle pipetting.\nTotal CM cell numbers were counted before sedimentation by two different people and in blinded experiments. The CMs were easily identified based on their size and on Troponin I expression (for all experiments with flow cytometry analysis). Round and rod-shaped CMs were counted and their numbers related to the heart, to the mg of tissue and also to the control hearts (saline-injected hearts) always performed in parallel the same day than BNP-treated hearts (i.e., with the same digestion buffer)."}, "[4]": {"system": "phospholamban (PLB)", "experiment": "Western blot pPLB/PLB in CMs isolated from BNP-injected hearts", "assay_type": "in vivo, mouse", "conditions": "vs saline", "experimental": "as §1, §2\n(§3) Total proteins were extracted from CMs isolated from adult infarcted and unmanipulated neonatal and adult hearts. Proteins were transferred to nitrocellulose membranes (Biorad) before incubation with primary antibodies overnight at 4 °C. Secondary antibodies were added 1 h at RT in the dark (Supplementary File S1). The signal was detected and quantified with the Odyssey infrared imaging system (LI-COR. Biosciences, Bad Homburg, Germany). All results were normalized to the tubulin protein level or to the total protein level thanks to stainings with the Revert 700 Total protein Stain (LI-COR)."}, "[5]": {"system": "phospholamban (PLB)", "experiment": "Western blot pPLB/PLB in adult CMs stimulated in vitro", "assay_type": "cell-based, mouse", "conditions": "adult CMs stimulated with BNP for 2–3 h in vitro, vs untreated", "experimental": "as §2, §3"}, "[6]": {"conditions": "rats with myocardial damage; cited from earlier work"}, "[7]": {"system": "p38", "experiment": "Western blot pp38/p38 in adult CMs stimulated in vitro", "assay_type": "cell-based, mouse", "conditions": "adult CMs stimulated with BNP for 2–3 h in vitro, vs untreated", "experimental": "as §2, §3"}},
  "note": "No end group written: not given here.",
  "data": [
    {"substance": "Brain Natriuretic Peptide (SQGSTLRVQQRPQNSKVTHISSCFGHKIDRIGSVSRLGCNALKLL; not fully specified; ends and bridges not checked; UniProt P40753 77-121, looked up) [BNP, synthetic mouse BNP (1–45) peptide (Bachem, catalog number H-7558)]", "values": [
      {"measurement": "survival of infarcted mice", "setting": "[1]", "result": 84.2, "unit": "%"},
      {"measurement": "number of caspase 3+ CMs change", "setting": "[2]", "result": "−13", "unit": "%"},
      {"measurement": "CM number per mg tissue", "setting": "[3]; BZ and RZ of infarcted hearts, BNP vs saline", "result": "No change"},
      {"measurement": "CM cell number per heart", "setting": "[3]; BZ or RZ of infarcted hearts, BNP vs saline", "result": "No increase"},
      {"measurement": "increase of number of CMs per mg tissue", "setting": "[3]; ZI of infarcted hearts, BNP vs saline", "result": 2, "unit": "fold"},
      {"measurement": "increase of number of CMs related to saline-injected littermates", "setting": "[3]; ZI of infarcted hearts, same-day isolation with same enzymatic cocktail", "result": 2.2, "unit": "fold"},
      {"measurement": "increase of total number of CMs per heart", "setting": "[3]; infarct area (ZI) of infarcted adult hearts, BNP 2 µg/20 g ip every 2 days, vs saline", "result": 81, "unit": "%"},
      {"measurement": "CM cell number in NPR-A deficient hearts", "setting": "[3]; unmanipulated adult NPR-A −/− mice, saline n = 4, BNP n = 3", "result": "did not change"},
      {"measurement": "increase of number of CMs related to saline-injected littermates", "setting": "[3]; unmanipulated adult hearts", "result": 28.5, "unit": "%"},
      {"measurement": "increase of total number of CMs per heart", "setting": "[3]; unmanipulated adult hearts, BNP 2 µg/20 g ip every 2 days for 2 weeks, vs saline", "result": 19, "unit": "%"},
      {"measurement": "increase of number of CMs per mg tissue", "setting": "[3]; unmanipulated adult hearts, BNP vs saline", "result": 26, "unit": "%"},
      {"measurement": "number of CMs in the presence of ERK inhibitor", "setting": "[3]; unmanipulated adult mice, PD0325901 (60 µg/20 g) 1 h before each BNP injection, 2 weeks, n = 5 per group", "result": "did not increase"},
      {"measurement": "increase of number of CMs related to saline-injected littermates", "setting": "[3]; unmanipulated neonatal hearts", "result": 23, "unit": "%"},
      {"measurement": "increase of total number of CMs per heart", "setting": "[3]; unmanipulated neonatal hearts, BNP 1 µg/2 g ip every 2 days from day 3, sacrifice day 11, vs saline", "result": 18, "unit": "%"},
      {"measurement": "increase of number of CMs per mg tissue", "setting": "[3]; unmanipulated neonatal hearts, BNP vs saline", "result": 44, "unit": "%"},
      {"measurement": "pPLB/PLB ratio change", "setting": "[4]; CMs from remote zone (RZ) of infarcted hearts after BNP injections", "result": "−32", "unit": "%"},
      {"measurement": "pPLB/PLB ratio increase", "setting": "[4]; CMs from unmanipulated adult hearts after BNP injections (2–3 h before CM isolation)", "result": 1.5, "unit": "×"},
      {"measurement": "pPLB/PLB ratio increase", "setting": "[4]; CMs from unmanipulated neonatal hearts after BNP injections", "result": 3.5, "unit": "×"},
      {"measurement": "pPLB/PLB ratio increase", "setting": "[4]; CMs isolated from border zone (BZ) of infarcted hearts after BNP injections", "result": 2.7, "unit": "×"},
      {"measurement": "pPLB/PLB ratio increase", "setting": "[5]", "result": 2.1, "unit": "×"},
      {"measurement": "half-life", "setting": "[6]", "result": "about 1.2 min"},
      {"measurement": "pp38/p38 ratio", "setting": "[7]", "result": "did not change"}
    ]}
  ]
}
